A short description of this data set: gradient 5% acetonitrile 3 min, to 50% in 2 min, to 85% in 15 min, held 3 min, 100 µL/min. To be noted: column: Zorbax Extend-C18 2.1 x 50 mm; eluents: water / acetonitrile, 0.1% formic acid. In a few lines:
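Standards, all pure, were combined into mixtures of ~100 molecules and run at 100 μL/min on a Zorbax Extend-C18 column (2.1 × 50 mm, 1.8 μm) with water and acetonitrile, each containing 0.1% formic acid. A coupled quadrupole time-of-flight mass spectrometer operated in positive and negative ionization mode. Retention time values come from computationally picked adduct peaks, each inspected manually.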
As for `Fc1ccc(-c2ccc(CNc3ncn[nH]3)o2)cc1Cl`, the RP-LC retention time came out at 692 s. Regarding `CCOc1ccc(CCNC(=O)c2ccc(-n3cnc(NC(=O)C4CC4)c3)cc2)cc1OCC`, the RP-LC retention time turned out to be 748 s.

As to `O=C(COc1ccccc1[N+](=O)[O-])Nc1nc(-c2ccccc2)cs1`, the RP-LC retention time was found to be 1040 s. To `CCCS(=O)(=O)c1nc2ccc(NS(=O)(=O)c3ccc(F)c(Cl)c3)cc2s1` belongs 1020 s; to `CCC(=O)N1CCc2cc(N3CC(C(=O)N4CCN(c5ccccn5)CC4)CC3=O)ccc21` (stereo not given), 584 s; to `Cc1c(-c2nn3c(Cc4ccccc4)nnc3s2)nnn1-c1ccc(Cl)cc1`, 1040 s.

On to `CCn1nc(N2CCCC(N)C2)ccc1=O` (stereo not given), for which the RP-LC retention time came to 497 s.

In the case of `COC(=O)Cn1c(COc2ccccc2)nc2ccccc21`, the RP-LC retention time was 706 s. As to `CC1Oc2ccc(S(=O)(=O)N3CCC(C(=O)Nc4ccc(F)c(Cl)c4)CC3)cc2NC1=O` (stereo not given), the RP-LC retention time was 902 s. To `CCCCC(=O)Nc1ccc2nc(N3CCN(c4cccc(C)c4C)CC3)cc(C(=O)O)c2c1` belongs 776 s; to `CCC(=O)N1CCc2cc(-c3ccc(C(=O)NCCCN4CCCC4=O)cc3)ccc21`, 712 s; to `COc1ccc(-c2nnc(Cc3nc(-c4ccc(C)cc4)no3)o2)cc1`, 1010 s.

`COc1ccc(Cl)cc1NC(=O)CN1C(=O)NC2(CCCCC2C)C1=O` (stereo not given) registered an RP-LC retention time of 838 s. For the molecule `CCc1ccc(NC(=O)C(=O)NCC(c2ccc3c(c2)OCO3)N2CCOCC2)cc1` (stereo not given), the RP-LC retention time was 613 s.

Regarding `COc1ccc(NC(=O)C2c3cc(OC)c(OC)cc3C(=O)N(C)C2c2cccnc2)c(OC)c1` (stereo not given), the RP-LC retention time worked out at 655 s.

`Cc1ccc2nc(C)cc(C(=O)NC(C)C)c2c1` gave an RP-LC retention time of 595 s. Molecule `CCOC(=O)c1nc(N2CCN(C(=O)c3ccco3)CC2)c2ccccc2n1` returned an RP-LC retention time of 665 s. `Cc1cccc(C)c1NC(=O)CCCSc1nnnn1-c1ccccc1`: the RP-LC retention time amounted to 810 s. In turn, `CCN1C(=O)c2cc(S(=O)(=O)NCc3ccccc3)ccc2Oc2cccnc21` yielded an RP-LC retention time of 986 s. The same measure for `Cc1nc2cccnc2n1CC1CCCN(S(=O)(=O)c2ccc3c(c2)OCCO3)C1` (stereo not given): 672 s.

In the case of `CCc1noc(-c2ccc(-n3ncc(C(=O)N4CCCCCC4)c3C)nc2)n1`, the RP-LC retention time came to 1010 s. To `O=C(C1CCCCC1)N1CCC(F)(C(=O)NC2CC2)CC1` belongs 637 s; to `Cc1cc(N2CCN(C(=O)Nc3ccccc3F)CC2)nc(N2CCOCC2)n1`, 617 s; to `CC(=O)c1ccc(NC(=O)C(C)Oc2ccc(=O)n(-c3ccc(F)cc3)n2)cc1` (stereo not given), 727 s. On to `Cc1nc([C@@H]2CN(S(=O)(=O)C(C)C)C[C@H]2C(N)=O)n[nH]1`, for which the RP-LC retention time worked out at 566 s. To `COc1cc(OC)cc(-c2noc(Cn3c(=O)n(CC(C)C)c(=O)c4ccccc43)n2)c1` belongs 1160 s. To `Cc1cccc(C(=O)Nc2c(C(=O)N3CCN(c4ccccn4)CC3)[nH]c3ccccc23)c1` belongs 613 s; to `c1cc2c(cc1-c1noc(C3CCC3)n1)nnn2CCN1CCCCC1`, 654 s; to `Cc1cncn(CC(=O)N2CCN(S(C)(=O)=O)CC2)c1=O`, 528 s. `O=C(Nc1cc(-c2ccccn2)no1)c1cccc(Cl)c1` came in with an RP-LC retention time of 870 s.

`O=C(Cc1ccc(Cl)cc1)N1CCN(C(=O)c2nnn3c2COC(c2ccccc2)C3)CC1` (stereo not given) gave an RP-LC retention time of 921 s. To `CCN(C(=O)Cc1c(C(=O)O)c(C)cn1CC)c1cc(C)ccc1C` belongs 892 s. To `O=C(c1ccccc1Br)N1CCN(Cc2noc3ccccc23)CC1` belongs 760 s; to `Cc1nc2cccnc2n1C1CCN(C(=O)Nc2ccc(Cl)cc2)CC1`, 659 s. As for `CCCN(CC1CCOC1)C(=O)Nc1ccc(C)cc1C` (stereo not given), the RP-LC retention time came out at 811 s. Molecule `Cc1ccc(S(=O)(=O)N2C(=O)CCC2C(=O)N2CCN(c3ccccn3)CC2)cc1` (stereo not given) gave an RP-LC retention time of 612 s. `CC(C)OC(=O)C(C(=O)OC(C)C)=C1SC=CS1` came in with an RP-LC retention time of 1110 s.

Turning to `Cc1ccc(CN(CC(=O)N2CCNCC2)C(=O)c2sccc2C)cc1C`, the RP-LC retention time turned out to be 669 s. The molecule `COc1ccc(-c2cc(N3CCC(NC(=O)c4cc(OC)c(OC)c(OC)c4)C3)n[nH]2)cc1` (stereo not given) yielded an RP-LC retention time of 688 s. The molecule `CCCN1C(=O)c2cc(S(=O)(=O)Nc3ccccc3C)ccc2Oc2cccnc21` gave an RP-LC retention time of 1080 s. The same measure for `CCN1CCC2(CC1)OC(=O)C(C)=C2C(=O)NCCCc1ccccc1`: 654 s.

For the molecule `CC(=O)N(C)CC(=O)N1CCN(c2cc(C)nc(Nc3ccc(C)cc3)n2)CC1`, the RP-LC retention time stood at 564 s. To `COc1ccc(Cl)cc1-n1c(SCC(=O)N2CCC(C(N)=O)CC2)nc2ccccc2c1=O` belongs 717 s; to `Cc1cnn(CC(=O)N2CCC3(CC2)CC(C)(O)CCO3)c1` (stereo not given), 603 s; to `CC(C)c1nc2c(c(=O)n1CC(=O)NCc1ccc(F)cc1)CCN(Cc1ccccc1)C2`, 683 s. The molecule `O=C(NC1CCS(=O)(=O)C1)C1CCN(S(=O)(=O)c2cccs2)CC1` (stereo not given) came in with an RP-LC retention time of 616 s. To `Cc1ccc2c(c1)N(C(=O)Cn1cnc3nc4c(cc3c1=O)CC(C)CC4)CCO2` (stereo not given) belongs 888 s; to `COc1cccc(-c2nnc(NC(=O)C3CCCCC3)o2)c1`, 753 s. The same measure for `Cc1ccc(-c2ccc(N3CCCC(C(=O)NC4CCCC4)C3)nn2)cc1` (stereo not given): 696 s. `O=C(Nc1ccc(-c2nnc3n2CCCC3)cc1)c1ccco1` gave an RP-LC retention time of 609 s. To `COC(=O)c1ccsc1NC(=O)c1ccc2c(c1)OCCO2` belongs 979 s; to `CC1CCCN(C(=O)c2cc3c(s2)CCN(C(=O)c2ccc(Cl)cc2)C3)C1` (stereo not given), 991 s.

In the case of `COc1cccc(S(=O)(=O)N2CCC(n3c(C)cnc3C3CC3)C2)c1` (stereo not given), the RP-LC retention time came to 587 s.

`O=C(NCc1ccccc1)c1cc(-c2ccc(F)cc2)ns1` gave an RP-LC retention time of 1040 s. In the case of `N#Cc1cccc(C(=O)NC2CCCC(OC(=O)Nc3ccccc3)C2)c1` (stereo not given), the RP-LC retention time was determined as 819 s. On to `Cc1cc(NC(=O)C2CCCN(c3ccc(-n4cccn4)nn3)C2)no1` (stereo not given), for which the RP-LC retention time is 654 s. Consider `COc1ccccc1C(=O)N1C[C@H](c2nc(-c3cccnc3)no2)[C@@H](C)C1`, for which the RP-LC retention time worked out at 758 s. The same measure for `CC(C)C(=O)NCC12CCC=C1N(C)C(=O)CC2` (stereo not given): 636 s; for `CN1CCN(C(=O)CN2C(=O)CCCc3cc(S(=O)(=O)N4CCCCCC4)ccc32)CC1`: 632 s. To `CCN(CC)C(=O)c1cc2c(s1)CCC(C(=O)N1CCC(C)CC1)C2` (stereo not given) belongs 806 s; to `COc1ccc(-c2csc(C(=O)n3nc(C)cc3C)c2-n2cccc2)cc1`, 1300 s; to `CCc1nc(-c2ccc(-c3noc(-c4ccco4)n3)cc2)cs1`, 1170 s. In turn, `CC(=O)c1ccc(N=NC(C(N)=O)C2NC(C)(C)Cc3ccccc32)cc1` (stereo not given) came in with an RP-LC retention time of 794 s. Molecule `Cc1ccc(C)c(-c2coc(-c3ccc(NC(=O)C(C)C)cc3)n2)c1` displayed an RP-LC retention time of 1170 s. The same measure for `Clc1ccc(Nc2nnc(Cc3ccncc3)c3ccccc23)cc1`: 599 s. The same measure for `CC(=O)N1CCc2c(-c3ccccc3)cccc2[C@H]1C`: 976 s; for `Cc1ccc(C2NC(=O)N(CC(=O)Nc3cc(F)cc(F)c3)C3=C2C(=O)OC3)cc1` (stereo not given): 844 s. To `CCOc1ccc(-c2noc(CN3N=NC4C(=O)N(c5ccc(C(C)C)cc5)C(=O)C43)n2)cc1OC` (stereo not given) belongs 1060 s; to `CC(C)c1nc2c(c(=O)n1CC(=O)NCc1ccccc1)CN(Cc1ccccc1)CC2`, 659 s.

Molecule `CC(C)CCNC(=O)C1(C)Cn2nc(C(=O)NC(C)c3ccccc3)cc2C(=O)N1C` (stereo not given) yielded an RP-LC retention time of 778 s.

Regarding `COC(=O)c1c(-c2ccccc2)noc1N1CCOCC1`, the RP-LC retention time was 860 s. To `Cc1nn(-c2ccccc2)c2nc(N3CCCC(C(=O)NCc4ccc(F)cc4)C3)sc12` (stereo not given) belongs 806 s; to `Fc1cccc(CN2CCC(N3CC4(CCCCC4)C3c3ccncc3)CC2)c1` (stereo not given), 560 s; to `O=C(CSc1nnc2ccc(-c3cccc([N+](=O)[O-])c3)nn12)c1cccs1`, 774 s. To `Cc1ccc(Sc2nccnc2N2CCC(C(=O)N3CCN(c4ccccn4)CC3)CC2)cc1` belongs 706 s; to `Cc1c2c(nn1-c1ccc(SCc3ccccc3F)nn1)CCC2`, 1270 s; to `COc1ccc(C)cc1S(=O)(=O)Nc1ccc(-c2cn3ccc(C)nc3n2)cc1`, 661 s. To `COC(=O)C1=C(C)N(C2CCCCC2)C(=O)C1(NC(=O)c1ccccc1OC)C(F)(F)F` (stereo not given) belongs 1090 s; to `CCC1Oc2ccc(S(=O)(=O)N3CCC(C(=O)Nc4ccccc4F)CC3)cc2NC1=O` (stereo not given), 812 s; to `Cc1cc(C)n(Cc2c(C(=O)NCC34CCC=C3N(C)C(=O)CC4)noc2C)n1` (stereo not given), 749 s.

For the origin of these results see the METLIN SMRT retention time set (Domingo-Almenara et al. 2019).
